Measurements taken from US20240245658A1, “TAAR1 AND SEROTONIN MODULATORS, AND PHARMACEUTICAL COMPOSITIONS, AND METHODS OF USE THEREOF” (Sunovion Pharmaceuticals Inc., priority 2021, published 2024).
Like-named read-outs stand apart in the source and are kept apart here.

Experiments:
Type in all cases: cell-based
human TAAR1 receptors = target: T1, human TAAR1 receptors (Homo sapiens, UniProt Q96RJ0); experiment: TAAR1 Agonism Assay: cAMP HTRF assay for Gs coupled receptor TAAR1 (Euroscreen FAST-0987C); settings: CHO-K1 cells expressing human TAAR1, cAMP HTRF
T1 construct: host or cells: CHO-K1
T1 sequence (Q96RJ0 1-339): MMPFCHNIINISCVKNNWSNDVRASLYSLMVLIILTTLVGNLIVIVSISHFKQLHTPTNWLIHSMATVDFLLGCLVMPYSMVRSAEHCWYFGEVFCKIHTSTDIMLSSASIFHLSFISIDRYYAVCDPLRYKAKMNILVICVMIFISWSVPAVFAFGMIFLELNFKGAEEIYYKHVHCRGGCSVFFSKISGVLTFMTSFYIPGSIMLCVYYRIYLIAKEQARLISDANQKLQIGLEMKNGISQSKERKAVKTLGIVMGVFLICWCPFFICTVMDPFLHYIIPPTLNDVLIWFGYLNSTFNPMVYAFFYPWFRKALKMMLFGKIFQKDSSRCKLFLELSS
Description: Dose response curves were performed in parallel with the reference compound, tyramine.
For the TAAR1 agonist test (performed in a 384 well plate): 5 μl of cells (about 3,000 cells) were mixed with 5 μl of the test compound diluted in assay buffer and then incubated for about 30 minutes at about room temperature. After addition of the lysis buffer containing cAMP-d2 and anti-cAMP cryptate detection reagents, plates were incubated for about a 1-hour incubation at about room temperature, and fluorescence ratios were measured according to the manufacturer specifications, with the HTRF (Homogeneous Time Resolved Fluorescence) kit (cAMP Gs dynamic kit, Cisbio Bioassays, 62AM4PEJ).
(§1) Compounds were tested at the following nanomolar concentrations, in duplicate: 0.3 nM, 1 nM, 3 nM, 10 nM, 30 nM, 100 nM, 300 nM, 1,000 nM, 3,000 nM, and 10,000 nM.

human 5-HT2A receptor = target: T2, human 5-HT2A receptor (Homo sapiens, UniProt P28223); experiment: 5HT2A Antagonism Assay (Euroscreen FAST-05051), IP-One HTRF
T2 construct: host or cells: CHO-K1
Description: 5HT2A Antagonism Assay Protocol (Euroscreen FAST-05051)
CHO-K1 cells expressing the human 5-HT2A receptor grown to mid-log phase in culture media without antibiotics, were detached with PBS-EDTA, centrifuged, and resuspended in the IP-One Gq kit (Cisbio Bioassays, 62IPAPEC) stimulation buffer.
For antagonist testing in a 384 well plate: 5 μl of cells (20,000 cells) were mixed with 5 μl of a mix of test compound and reference agonist (for a final assay concentration corresponding to its EC80) diluted in stimulation buffer. The plate was incubated for 60 minutes at 37° C. in a humidified atmosphere of 95% air with 5% CO2, then 5 μL of IP1-d2 and anti-IP1 cryptate detection reagents were added to each well, the plates were incubated for about 1 hour at about room temperature. Fluorescence ratios are measured according to the manufacturer's specification (IP-One Gq kit (Cisbio Bioassays, 62IPAPEC).
Dose response curves were performed in parallel with reference compounds (e.g., α-methyl-5-HT. Compounds were tested at the following nanomolar concentrations, in duplicate: 0.3 nM, 1 nM, 3 nM, 10 nM, 30 nM, 100 nM, 300 nM, 1,000 nM, 3,000 nM, and 10,000 nM

human 5-HT7 receptor = target: T3, human 5-HT7 receptor (Homo sapiens, UniProt P34969); experiment: 5HT7 Antagonism Assay (Euroscreen FAST-0499C), cAMP HTRF; settings: CHO-K1 cells expressing human 5-HT7, reference agonist at EC80, cAMP HTRF
T3 construct: host or cells: CHO-K1
Description: 5HT7 Antagonism Assay Protocol (Euroscreen FAST-0499C)
CHO-K1 cells expressing the human 5-HT7 receptor, grown prior to the test in media without antibiotic, were detached by gentle flushing with PBS-EDTA (5 mM EDTA), recovered by centrifugation and resuspended in assay buffer (Krebs-Ringer HEPES buffer: 5 mM KCl, 1.25 mM MgSO4, 124 mM NaCl, 25 mM HEPES, 13.3 mM Glucose, 1.25 mM KH2PO4, 1.45 mM CaCl2), 0.5 g/l BSA, supplemented with 1 mM IBMX).
Dose response curves were performed in parallel with reference compounds (e.g., 5-carboxamidotryptamine (5-CT)).
For antagonist testing in a 384 well plate: 5 μl of cells (3000 cells) were mixed with 5 μl of a mix of test compound and reference agonist (for a final assay concentration corresponding to its EC80) diluted in assay buffer. The plates were then incubated for about 30 minutes at about room temperature. After addition of the lysis buffer containing cAMP-d2 and anti-cAMP cryptate detection reagents, plates were incubated for about 1 hour at about room temperature, and fluorescence ratios were measured according to the manufacturer's specifications (HTRF kit: cAMP Gs dynamic kit, Cisbio Bioassays, 62AM4PEJ).
as §1

[1] = 5-HT2A (IC50), CHO-K1 cells expressing human 5-HT2A, reference agonist at EC80, IP-One
[2] = read-out: 5-HT2A (IC50), CHO-K1 cells expressing human 5-HT2A, reference agonist at EC80, IP-One
[3] = CHO-K1 cells expressing human 5-HT2A, reference agonist at EC80, IP-One, read-out: 5-HT2A (IC50)

T3 sequence (P34969 whole entry): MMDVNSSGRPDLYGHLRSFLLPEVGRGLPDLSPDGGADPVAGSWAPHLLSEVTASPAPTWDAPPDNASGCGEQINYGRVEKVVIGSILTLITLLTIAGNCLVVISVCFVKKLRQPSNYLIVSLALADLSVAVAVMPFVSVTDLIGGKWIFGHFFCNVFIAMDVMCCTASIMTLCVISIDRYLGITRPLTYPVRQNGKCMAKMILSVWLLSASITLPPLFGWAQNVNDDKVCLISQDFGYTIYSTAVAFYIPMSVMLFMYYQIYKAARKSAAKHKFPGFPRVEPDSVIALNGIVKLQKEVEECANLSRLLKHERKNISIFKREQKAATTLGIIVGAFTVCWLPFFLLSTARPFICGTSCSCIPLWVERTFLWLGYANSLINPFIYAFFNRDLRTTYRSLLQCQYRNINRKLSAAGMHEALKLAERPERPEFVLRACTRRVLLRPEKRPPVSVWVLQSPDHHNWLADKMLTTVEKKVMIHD
T2 sequence (P28223 whole entry): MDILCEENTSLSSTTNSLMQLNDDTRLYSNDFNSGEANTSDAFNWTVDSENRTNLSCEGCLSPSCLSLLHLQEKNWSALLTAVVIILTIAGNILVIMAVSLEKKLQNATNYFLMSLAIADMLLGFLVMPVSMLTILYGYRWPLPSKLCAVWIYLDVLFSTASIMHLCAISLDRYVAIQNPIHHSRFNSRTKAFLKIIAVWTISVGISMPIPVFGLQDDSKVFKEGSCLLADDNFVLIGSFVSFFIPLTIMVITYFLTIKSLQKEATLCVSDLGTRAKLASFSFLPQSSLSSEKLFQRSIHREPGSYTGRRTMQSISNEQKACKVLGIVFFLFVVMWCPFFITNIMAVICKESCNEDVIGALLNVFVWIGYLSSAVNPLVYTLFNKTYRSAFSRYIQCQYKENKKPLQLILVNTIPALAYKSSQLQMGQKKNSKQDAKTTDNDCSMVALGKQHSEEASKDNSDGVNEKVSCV

SMILES | EC50 (human TAAR1 receptors) [µM] | IC50 (human 5-HT2A receptor; [1]) [µM] | IC50 (human 5-HT7 receptor) [µM] | IC50 (human 5-HT2A receptor; [2]) [µM] | IC50 (human 5-HT2A receptor; [3]) [µM]
NCC1Cc2ccccc2Oc2cc(F)ccc21 (single isomer, unassigned) [Compound 1, (R*)-(7-fluoro-10,11-dihydrodibenzo[b,f]oxepin-10-yl)methanamine] | 1 to 10 | < 1 | ≥ 10 |  | 
NCC1Cc2ccccc2Oc2cc(F)ccc21 (single isomer, unassigned) [Compound 2, (S*)-(7-fluoro-10,11-dihydrodibenzo[b,f]oxepin-10-yl)methanamine] | < 1 |  | ≥ 10 | < 1 | 
CNCC1Cc2ccccc2Oc2cc(F)ccc21 (single isomer, unassigned) [Compound 3, (R*)-1-(7-fluoro-10,11-dihydrodibenzo[b,f]oxepin-10-yl)-N-methylmethanamine] | > 10 | < 1 | 1 to 10 |  | 
CNCC1Cc2ccccc2Oc2cc(F)ccc21 (single isomer, unassigned) [Compound 4, (S*)-1-(7-fluoro-10,11-dihydrodibenzo[b,f]oxepin-10-yl)-N-methylmethanamine] | < 1 |  | 1 to 10 | < 1 | 
CNCC1Cc2ccccc2Oc2cccnc21 (single isomer, unassigned) [Compound 5, (S*)-1-(10,11-dihydrobenzo[6,7]oxepino[3,2-b]pyridin-11-yl)-N-methylmethanamine] | < 1 | < 1 | < 1 |  | 
CNCC1Cc2ccccc2Oc2cccnc21 (single isomer, unassigned) [Compound 6, (R*)-1-(10,11-dihydrobenzo-[6,7]oxepino[3,2-b]pyridin-11-yl)-N-methylmethanamine] | < 1 | 1 to 10 | ≥ 10 |  | 
NCC1Cc2ccccc2Oc2cccnc21 (single isomer, unassigned) [Compound 7, (S*)-(10,11-dihydrobenzo[6,7]oxepino[3,2-b]pyridin-11-yl)methanamine] | < 1 | > 10 | 1 to 10 |  | 
NCC1Cc2ccccc2Oc2cccnc21 (single isomer, unassigned) [Compound 8, (R*)-(10,11-dihydrobenzo[6,7]oxepino[3,2-b]pyridin-11-yl)methanamine] | < 1 |  | ≥ 10 | > 10 | 
NCC1Cc2cccnc2Oc2ccccc21 (single isomer, unassigned) [Compound 17, (R*)-(5,6-dihydrobenzo[6,7]oxepino[2,3-b]pyridin-6-yl)methanamine] | < 1 | < 1 | ≥ 10 |  | 
NCC1Cc2cccnc2Oc2ccccc21 (single isomer, unassigned) [Compound 18, (S*)-(5,6-dihydrobenzo[6,7]oxepino[2,3-b]pyridin-6-yl)methanamine] | > 10 | > 10 | ≥ 10 |  | 
CNCC1Cc2cccnc2Oc2ccccc21 (single isomer, unassigned) [Compound 19, (R*)-1-(5,6-dihydrobenzo[6,7]oxepino[2,3-b]pyridin-6-yl)-N-methylmethanamine] | 1 to 10 |  | ≥ 10 |  | 1 to 10
CNCC1Cc2cccnc2Oc2ccccc21 (single isomer, unassigned) [Compound 20, (S*)-1-(5,6-dihydrobenzo[6,7]oxepino[2,3-b]pyridin-6-yl)-N-methylmethanamine] | > 10 |  | ≥ 10 |  | > 10
NCC1Cc2ccncc2Oc2ccccc21 (single isomer, unassigned) [Compound 21, (R*)-(5,6-dihydrobenzo[6,7]oxepino[2,3-c]pyridin-6-yl)methanamine] | < 1 | 1 to 10 | ≥ 10 |  | 
NCC1Cc2ccncc2Oc2ccccc21 (single isomer, unassigned) [Compound 22, (S*)-(5,6-dihydrobenzo[6,7]oxepino[2,3-c]pyridin-6-yl)methanamine] | 1 to 10 |  | ≥ 10 | 1 to 10 | 
CNCC1Cc2ccncc2Oc2ccccc21 (single isomer, unassigned) [Compound 23, (R*)-1-(5,6-dihydrobenzo[6,7]oxepino[2,3-c]pyridin-6-yl)-N-methylmethanamine] | < 1 | < 1 | < 1 |  | 
CNCC1Cc2ccncc2Oc2ccccc21 (single isomer, unassigned) [Compound 24, (S*)-1-(5,6-dihydrobenzo[6,7]oxepino[2,3-c]pyridin-6-yl)-N-methylmethanamine] | > 10 |  | 1 to 10 | < 1 | 
NCC1Cc2ncccc2Oc2ccccc21 (single isomer, unassigned) [Compound 29, (R*)-(10,11-dihydrobenzo[6,7]oxepino[3,2-b]pyridin-10-yl)methanamine] | 1 to 10 | 1 to 10 | ≥ 10 |  | 
CNCC1Cc2ncccc2Oc2cccc(F)c21 (single isomer, unassigned) [Compound 157, (R*)-(9-fluoro-10,11-dihydrobenzo[6,7]oxepino[3,2-b]pyridin-10-yl)-N-methylmethanamine] | > 10 |  |  |  | 
NCC1Cc2ncccc2Oc2ccc(Cl)cc21 (single isomer, unassigned) [Compound 168, (S*)-(8-chloro-10,11-dihydrobenzo[6,7]oxepino[3,2-b]pyridin-10-yl)methanamine] | 1 to 10 |  |  |  | 
CNCC1Cc2ncccc2Oc2ccc(Cl)cc21 (single isomer, unassigned) [Compound 169, (R*)-1-(8-chloro-10,11-dihydrobenzo[6,7]oxepino[3,2-b]pyridin-10-yl)-N-methylmethanamine] | > 10 |  |  |  | 
NCC1Cc2ncccc2Oc2c(F)cccc21 (single isomer, unassigned) [Compound 175, (R*)-(6-fluoro-10,11-dihydrobenzo[6,7]oxepino[3,2-b]pyridin-10-yl)methanamine] | 1 to 10 |  |  |  | 
CNCC1Cc2ncccc2Oc2c(F)cccc21 (single isomer, unassigned) [Compound 177, (R*)-1-(6-fluoro-10,11-dihydrobenzo[6,7]oxepino[3,2-b]pyridin-10-yl)-N-methylmethanamine] | > 10 |  |  |  | 
CNCC1Cc2ncccc2Oc2c(F)cccc21 (single isomer, unassigned) [Compound 178, (S*)-1-(6-fluoro-10,11-dihydrobenzo[6,7]oxepino[3,2-b]pyridin-10-yl)-N-methylmethanamine] | < 1 |  |  |  | 
C[C@H]1c2ccccc2Oc2cccnc2[C@H]1CN (stereo in doubt) [Compound 113, ((10R*,11R*)-10-methyl-10,11-dihydrobenzo[6,7]oxepino[3,2-b]pyridin-11-yl)methanamine] | > 10 |  |  |  | 
CNC[C@@H]1c2ncccc2Oc2ccccc2[C@@H]1C (stereo in doubt) [Compound 117, ((10R*,11R*)-10-methyl-10,11-dihydrobenzo[6,7]oxepino[3,2-b]pyridin-11-yl)-N-methylmethanamine] | > 10 |  |  |  | 
